Residues, ends and D or L forms follow the SMILES beside them. *: point of attachment. Cbz = O=C(OCc1ccccc1)*; OtBu = CC(C)(C)O*
Tested on: C57BL/6 mice
Assay: Capsaicin-induced mechanical hypersensitivity (von Frey)
Type: in vivo, mouse
Parameters: LVF Mean / HVF Mean / MECHANICAL LVF / MECHANICAL HVF: unit not given here
Text: FGF13 is a neuronal gene ubiquitously transcribed in DRG neuronal subtypes ([43]–[46]). To investigate neuronal subtype enrichment of the FGF13 transcript, we examined a gene panel including FGF13, SCN9A, and several marker genes in mouse single-cell transcriptomic data (Supplemental Figure 10) ([43]–[46]). […] Critically, putative silent nociceptors marked by somatostatin (SST), and the nicotinic cholinergic receptor α-3 subunit (CHRNA3) contribute to development of inflammatory mechanical hyperalgesia ([47]). […] We next determined if PW164 modulation of the FGF13/Nav1.7 complex could suppress nociceptive behaviors in WT mice. We tested whether intraplantar (i.pl.) injection (5 μL) of PW164 altered hind paw withdrawal in response to low or high intensity von Frey filament (LVF or HVF, respectively) mechanical stimulation (Figure 3A). […] Next, we evaluated PW164’s effect on mechanical and thermal hindpaw sensitivity in capsaicin-induced nociceptive hypersensitivity models. […] Next, we performed in vivo target validation in WT mice that received an intrathecal (i.t.) injection in L5 of AAV2-shFGF13 (6 μL, viral titers 1 × 10^12 vector genomes (vg)/mL); a control group received an equal number of AAV2-shCTRL particles (Figure 3C).
Experiments were performed on 6- to 12-week-old male C57BL/6 mice (The Jackson Laboratory, Bar Harbor, ME) housed in the AAALAC-accredited facility at the University of Texas Medical Branch. Mice were group-housed with up to 5 mice per cage on a 12-to-12-hour light–dark cycle and had access to water and food ad libitum. All protocols were approved by the Institutional Animal Care and Use Committee (IACUC) at the University of Texas Medical Branch and in accordance with the National Institutes of Health (NIH) guidelines.
PW164 and ZL192 were dissolved in DMSO and saline in a ratio of 1:10. 0.1% capsaicin (10% ethanol, 10% Tween-20 in saline; Sigma-Aldrich). All the compounds were injected at the center of the hind paw. The control group received a DMSO-saline mixture. […]
Bupivacaine was prepared from a 1:2 dilution with sterile 0.9% saline and locally injected in the center of the paw at 7 mg/ml.
AAV2 viral particles packaged by the University of North Carolina Gene Therapy Core Facility (viral titer ranging […]
Before intrathecal injections in the lumbar region, mice were maintained in an anesthetizing box with 2% isoflurane to induce unconsciousness. Six microliters of viral vector were gently injected into the CSF through a 30-gauge needle with a Hamilton syringe in the lumbar area between vertebrae L4 and L5 by gently gripping the iliac crest of the mouse and inserting the needle with an angle of 45°. The correct procedure was confirmed by the mouse’s tail reflexiv e flick.
Assessment of mechanical sensitivity
Mechanical sensitivity was assessed using von Frey filaments (VFF 0.1g and 1.0 g force) in mice that were either naïve or received intraplantar (i.p.) injection of capsaicin. VFFs were applied at the injection site (capsaicin or […]

[1] = Cap + PW164 0.07 mg/mL, Time (h) 0
[2] = Cap + PW164 0.07 mg/mL, Time (h) 0.5
[3] = Cap + PW164 0.07 mg/mL, Time (h) 1
[4] = Cap + PW164 0.07 mg/mL, Time (h) 1.5
[5] = Cap + PW164 0.07 mg/mL, Time (h) 2
[6] = Cap + PW164 0.07 mg/mL, Time (h) 3
[7] = Cap + PW164 0.21 mg/mL, Time (h) 0
[8] = Cap + PW164 0.21 mg/mL, Time (h) 0.5
[9] = Cap + PW164 0.21 mg/mL, Time (h) 1
[10] = Cap + PW164 0.21 mg/mL, Time (h) 1.5
[11] = Cap + PW164 0.21 mg/mL, Time (h) 2
[12] = Cap + PW164 0.21 mg/mL, Time (h) 3
[13] = Cap + PW164 0.7 mg/mL, Time (h) 0
[14] = Cap + PW164 0.7 mg/mL, Time (h) 0.5
[15] = Cap + PW164 0.7 mg/mL, Time (h) 1
[16] = Cap + PW164 0.7 mg/mL, Time (h) 1.5
[17] = Cap + PW164 0.7 mg/mL, Time (h) 2
[18] = Cap + PW164 0.7 mg/mL, Time (h) 3
[19] = Figure 3 D, AAV2-Control mice after Cap, 0.h min PW164
[20] = Figure 3 D, AAV2-Control mice after Cap, 1h PW164
[21] = Figure 3 D, AAV2-Control mice after Cap, 2h PW164
[22] = Figure 3 D, AAv2-shFGF13 mice after Cap, 0.h min PW164
[23] = Figure 3 D, AAv2-shFGF13 mice after Cap, 1h PW164
[24] = Figure 3 D, AAv2-shFGF13 mice after Cap, 2h PW164

COC(=O)[C@@H](NC(=O)[C@H](CCC(=O)OC(C)(C)C)NC(=O)[C@H](CC(C)C)NC(=O)[C@@H]1CCCN1C(=O)OCc1ccccc1)C(C)C [PW164] (Cbz-PLE(OtBu)V-OMe)
HVF Mean [1]: 50
LVF Mean [1]: 0
HVF Mean [2]: 100
LVF Mean [2]: 62.5
HVF Mean [3]: 97.5
LVF Mean [3]: 62.5
HVF Mean [4]: 85
LVF Mean [4]: 45
HVF Mean [5]: 87.5
LVF Mean [5]: 35
HVF Mean [6]: 83.75
LVF Mean [6]: 32.5
HVF Mean [7]: 51.6667
LVF Mean [7]: 0
HVF Mean [8]: 100
LVF Mean [8]: 60
HVF Mean [9]: 78.3333
LVF Mean [9]: 40
HVF Mean [10]: 83.3333
LVF Mean [10]: 35
HVF Mean [11]: 90
LVF Mean [11]: 30
HVF Mean [12]: 98.3333
LVF Mean [12]: 38.3333
HVF Mean [13]: 50
LVF Mean [13]: 0
HVF Mean [14]: 100
LVF Mean [14]: 61.6667
HVF Mean (Cap + PW164 0.7 mg/mL, Time (h) 0.75): 80
HVF Mean [15]: 63.3333
LVF Mean [15]: 20
HVF Mean [16]: 63.3333
LVF Mean [16]: 13.3333
HVF Mean [17]: 68.3333
LVF Mean [17]: 21.6667
HVF Mean [18]: 86.6667
LVF Mean [18]: 31.6667
HVF Mean [19]: 43.3333
LVF Mean [19]: 14.17
HVF Mean [20]: 50
LVF Mean [20]: 13.33
HVF Mean [21]: 45.8333
LVF Mean [21]: 9.17
HVF Mean [22]: 41.5152
LVF Mean [22]: 9.09
HVF Mean [23]: 37.9091
LVF Mean [23]: 9.39
HVF Mean [24]: 41.2121
LVF Mean [24]: 11.52
duration of analgesic effect (PW164 0.7 mg/mL i.pl., naive and AAV2-shCTRL mice after capsaicin): at least 2 hours
mechanical sensitivity in AAV2-shFGF13 mice after capsaicin (PW164 5 μL, 0.7mg/mL hind paw): did not further modify
capsaicin-induced mechanical sensitivity (PW164 at the capsaicin injection site, 30 minutes post-capsaicin): inhibited
lowest concentration with dose-dependent antihyperalgesic effect (i.pl., capsaicin model): 0.21 mg/mL
